The results in this text go back to ChEMBL document CHEMBL3112576, “Synthesis and biological evaluation of a new series of ebselen derivatives as glutathione peroxidase (GPx) mimics and cholinesterase inhibitors against Alzheimer's disease” (Bioorg Med Chem, 2014).

The nature of data set [1]: GPx-like activity of the compound using GSH/0.8 mM H2O2 as substrate assessed as GSH-mediated H2O2 reduction at 80 uM at pH 7.5 measured for 10 secs by spectrophotometric analysis. The format is physicochemical. To be noted: pH 7.5, 10 s.
The nature of data set [2]: GPx-like activity of the compound using 1 mM GSH/H2O2 as substrate assessed as GSH-mediated H2O2 reduction at 80 uM at pH 7.5 measured for 10 secs by spectrophotometric analysis. The format is physicochemical. The following applies: pH 7.5, 10 s.
Data set [3] deals with Acetylcholinesterase (Homo sapiens, UniProt P22303). The data set can be described thus: Inhibition of human erythrocyte acetylcholinesterase using acetylthiocholine chloride as substrate preincubated for 15 mins followed by substrate addition by Ellman's method.
Chain of Acetylcholinesterase (Homo sapiens, UniProt P22303) (P22303 whole entry): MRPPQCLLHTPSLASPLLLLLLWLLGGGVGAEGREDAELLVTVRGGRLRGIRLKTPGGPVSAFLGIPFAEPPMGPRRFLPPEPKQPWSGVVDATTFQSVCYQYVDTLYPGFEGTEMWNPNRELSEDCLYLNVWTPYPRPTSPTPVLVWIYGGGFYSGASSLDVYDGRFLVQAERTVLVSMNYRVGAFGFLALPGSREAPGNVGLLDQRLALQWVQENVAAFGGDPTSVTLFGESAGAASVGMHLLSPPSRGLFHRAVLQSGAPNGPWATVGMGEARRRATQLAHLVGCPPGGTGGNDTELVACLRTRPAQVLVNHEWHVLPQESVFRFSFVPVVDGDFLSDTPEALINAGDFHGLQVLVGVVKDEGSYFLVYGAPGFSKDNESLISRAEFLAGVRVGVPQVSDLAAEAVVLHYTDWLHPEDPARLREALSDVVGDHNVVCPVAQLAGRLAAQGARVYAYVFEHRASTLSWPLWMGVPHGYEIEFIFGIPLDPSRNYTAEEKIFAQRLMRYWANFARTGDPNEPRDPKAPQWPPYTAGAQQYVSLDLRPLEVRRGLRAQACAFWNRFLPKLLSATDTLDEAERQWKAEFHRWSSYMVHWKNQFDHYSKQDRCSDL
Data set [4] is described as follows: GPx-like activity of the compound using GSH/variable H2O2 as substrate assessed as catalytic efficiency by Lineweaver-burk plot analysis. It counts as physicochemical.
The nature of data set [5]: GPx-like activity of the compound using GSH/1.2 mM H2O2 as substrate assessed as GSH-mediated H2O2 reduction at 80 uM at pH 7.5 measured for 10 secs by spectrophotometric analysis. It counts as physicochemical. The following applies: pH 7.5, 10 s.
Data set [6] in a line: GPx-like activity of the compound using 1.5 mM GSH/H2O2 as substrate assessed as GSH-mediated H2O2 reduction at 80 uM at pH 7.5 measured for 10 secs by spectrophotometric analysis. The format is physicochemical. To be noted: pH 7.5, 10 s.
In the next data set the target is Cholinesterase (Equus caballus, UniProt P81908).
Chain of Cholinesterase (P81908 whole entry): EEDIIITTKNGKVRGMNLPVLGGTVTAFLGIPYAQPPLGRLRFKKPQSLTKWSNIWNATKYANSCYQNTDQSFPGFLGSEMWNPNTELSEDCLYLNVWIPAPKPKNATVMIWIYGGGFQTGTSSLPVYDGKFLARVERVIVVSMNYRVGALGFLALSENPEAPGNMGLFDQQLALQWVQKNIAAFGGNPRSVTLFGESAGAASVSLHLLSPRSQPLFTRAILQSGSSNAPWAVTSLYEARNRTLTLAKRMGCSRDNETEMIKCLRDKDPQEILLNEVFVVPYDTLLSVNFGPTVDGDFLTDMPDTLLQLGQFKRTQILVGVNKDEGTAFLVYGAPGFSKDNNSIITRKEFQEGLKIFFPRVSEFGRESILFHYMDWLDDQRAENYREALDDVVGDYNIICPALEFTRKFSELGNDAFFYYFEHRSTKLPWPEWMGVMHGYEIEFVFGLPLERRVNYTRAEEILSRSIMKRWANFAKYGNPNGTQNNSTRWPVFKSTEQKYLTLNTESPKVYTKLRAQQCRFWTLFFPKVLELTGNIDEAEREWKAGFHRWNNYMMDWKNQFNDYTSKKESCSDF
Data set [7] in a line: GPx-like activity of the compound using 2 mM GSH/H2O2 as substrate assessed as GSH-mediated H2O2 reduction at 80 uM at pH 7.5 measured for 10 secs by spectrophotometric analysis. The format is physicochemical. The following applies: pH 7.5, 10 s.
Data set [8] is described as follows: GPx-like activity of the compound using 4 mM GSH/H2O2 as substrate assessed as GSH-mediated H2O2 reduction at 80 uM at pH 7.5 measured for 10 secs by spectrophotometric analysis. The format is physicochemical. The following applies: pH 7.5, 10 s.
Data set [9] can be described thus: GPx-like activity of the compound using GSH/1.4 mM H2O2 as substrate assessed as GSH-mediated H2O2 reduction at 80 uM at pH 7.5 measured for 10 secs by spectrophotometric analysis. The format is physicochemical. To be noted: pH 7.5, 10 s.
Data set [10] can be described thus: GPx-like activity of the compound using 3 mM GSH/H2O2 as substrate assessed as GSH-mediated H2O2 reduction at 80 uM at pH 7.5 measured for 10 secs by spectrophotometric analysis. It counts as physicochemical. To be noted: pH 7.5, 10 s.
A short description of data set [11]: GPx-like activity of the compound using GSH/1.6 mM H2O2 as substrate assessed as GSH-mediated H2O2 reduction at 80 uM at pH 7.5 measured for 10 secs by spectrophotometric analysis. The format is physicochemical. The following applies: pH 7.5, 10 s.
For data set [12], the target named is Acetylcholinesterase (Electrophorus electricus, UniProt O42275).
Chain of Acetylcholinesterase (Electrophorus electricus, UniProt O42275) (O42275 whole entry): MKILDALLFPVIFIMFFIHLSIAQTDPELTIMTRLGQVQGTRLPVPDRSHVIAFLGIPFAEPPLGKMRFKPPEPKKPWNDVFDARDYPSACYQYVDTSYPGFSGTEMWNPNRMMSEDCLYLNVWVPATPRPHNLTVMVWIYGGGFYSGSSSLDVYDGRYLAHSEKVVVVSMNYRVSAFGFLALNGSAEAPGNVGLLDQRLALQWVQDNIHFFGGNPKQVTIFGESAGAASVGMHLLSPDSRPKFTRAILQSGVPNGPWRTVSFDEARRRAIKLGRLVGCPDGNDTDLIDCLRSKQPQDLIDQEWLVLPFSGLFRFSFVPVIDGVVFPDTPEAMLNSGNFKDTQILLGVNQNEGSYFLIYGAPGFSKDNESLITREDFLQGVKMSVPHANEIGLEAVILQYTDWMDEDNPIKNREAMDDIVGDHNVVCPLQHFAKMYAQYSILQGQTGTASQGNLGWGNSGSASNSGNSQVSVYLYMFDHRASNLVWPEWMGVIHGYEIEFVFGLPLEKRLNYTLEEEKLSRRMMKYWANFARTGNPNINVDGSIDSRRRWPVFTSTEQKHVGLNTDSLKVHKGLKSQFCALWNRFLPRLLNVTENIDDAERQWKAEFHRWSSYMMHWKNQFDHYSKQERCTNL
Description: Inhibition of electric eel acetylcholinesterase using acetylthiocholine chloride as substrate preincubated for 15 mins followed by substrate addition by Ellman's method
Data set [13] in a line: GPx-like activity of the compound using GSH/1 mM H2O2 as substrate assessed as GSH-mediated H2O2 reduction at 80 uM at pH 7.5 measured for 10 secs by spectrophotometric analysis. The format is physicochemical. To be noted: pH 7.5, 10 s.
Data set [14] is described as follows: GPx-like activity of the compound using variable GSH/H2O2 as substrate by Lineweaver-burk plot analysis. It counts as physicochemical.
A short description of data set [15]: Antioxidant activity assessed as H2O2 scavenging activity at 50 to 200 uM after 10 hrs by ferrous ion oxidation-xylenol orange assay. It counts as functional.
Data set [16] can be described thus: GPx-like activity of the compound using GSH/variable H2O2 as substrate by Lineweaver-burk plot analysis. It counts as physicochemical.
Data set [17] can be described thus: GPx-like activity of the compound using variable GSH/H2O2 as substrate assessed as catalytic efficiency by Lineweaver-burk plot analysis. The format is physicochemical.

Calls of active or inactive are those of the source. The rule behind the calls is not given here. Bounds are passed on as bounds.

As a reminder, the IC50 is the concentration needed to halve the response being measured. A word on the Vmax: it is the rate approached at saturating substrate. Consider `COc1cc2[se]n(-c3ccc(OCCN4CCCCC4)cc3)c(=O)c2cc1OC`, for which the Activity was 53.36 µM/min in [1]; 77.43 µM/min in data set [2]; 0.74 mM⁻¹ min⁻¹ in data set [4]; 98.87 µM/min in [5]; 110.89 µM/min in data set [6]; 126.72 µM/min in data set [7]. For the same molecule, the Activity came out at 164.86 µM/min in data set [8]; 109.83 µM/min in [9]; 150.13 µM/min in [10]; 122.64 µM/min in [11]; 76.93 µM/min in data set [13]; 1.4 mM⁻¹ min⁻¹ in data set [17]. Further, the IC50 on Acetylcholinesterase [3] worked out at 0.45 µM; at Cholinesterase, 9.69 µM; on Acetylcholinesterase [12], 0.46 µM. The Kcat in [14] worked out at 0.0577 s⁻¹; in [16] it was 0.066 s⁻¹. Further, the values for the maximal velocity (Vmax) in data set [14] and in data set [16] were 276.24 µM/min and 316.46 µM/min, respectively. In addition, the outcome in [15] was Active.

In the case of `COc1cc2[se]n(-c3ccc(OCCCN4CCCCC4)cc3)c(=O)c2cc1OC`, the concentration for half-maximal inhibition (IC50) was determined as 5.15 µM on Acetylcholinesterase [3], 5.8 µM against Cholinesterase and 4.5 µM against Acetylcholinesterase [12].

For the molecule `COc1cc2[se]n(-c3ccc(CCN4CCCC4)cc3)c(=O)c2cc1OC`, the half-maximal inhibitory concentration (IC50) was 13.9 µM on Acetylcholinesterase [3], over 15 µM against Cholinesterase and 4.32 µM against Acetylcholinesterase [12].

For `COc1cc2[se]n(-c3ccc(CN4CCCC4)cc3)c(=O)c2cc1OC`, the figures for the IC50 at Acetylcholinesterase [3], against Cholinesterase and at Acetylcholinesterase [12] were 4.31 µM, 13.4 µM and 1.06 µM, respectively.

For `O=c1c2ccccc2[se]n1-c1ccc(CCN2CCCC2)cc1`, the IC50 on Acetylcholinesterase [3] was over 15 µM; at Cholinesterase, 6.38 µM; against Acetylcholinesterase [12] it was over 15 µM.

In the case of `COc1cc2[se]n(-c3ccc(CN(C)Cc4ccccc4)cc3)c(=O)c2cc1OC`, the IC50 against Acetylcholinesterase [3] is over 15 µM; against Cholinesterase it was 3.62 µM; at Acetylcholinesterase [12], 1.71 µM.

With `COc1cc2[se]n(-c3ccc(CN4CCCCC4)cc3)c(=O)c2cc1OC`, the Activity was 81.43 µM/min in data set [1]; 88.35 µM/min in [2]; 1.45 mM⁻¹ min⁻¹ in data set [4]; 121.72 µM/min in data set [5]; 130.27 µM/min in [6]; 147.84 µM/min in data set [7]. Also, the Activity stood at 185.66 µM/min in data set [8]; 132.29 µM/min in [9]; 166.44 µM/min in data set [10]; 150.53 µM/min in data set [11]; 109.44 µM/min in data set [13]; 1.63 mM⁻¹ min⁻¹ in data set [17]. Further, the concentration for half-maximal inhibition (IC50) is 1.44 µM against Acetylcholinesterase [3], over 15 µM against Cholinesterase and 0.76 µM against Acetylcholinesterase [12]. Also, the figures for the Kcat in data set [14] and in [16] were 0.0643 s⁻¹ and 0.1812 s⁻¹, respectively. For the same molecule, the Vmax in [14] stood at 308.64 µM/min; in data set [16], 869.57 µM/min. Moreover, the outcome in [15] was Active.

As to `COc1cc2[se]n(-c3ccc(CCN4CCCCC4)cc3)c(=O)c2cc1OC`, the IC50 against Acetylcholinesterase [3] is 10.5 µM; against Cholinesterase, over 15 µM; against Acetylcholinesterase [12], 3.87 µM.

For `COc1cc2[se]n(-c3ccc(OCCCCN4CCCCC4)cc3)c(=O)c2cc1OC`, the IC50 was 3.41 µM against Acetylcholinesterase [3], 5.72 µM at Cholinesterase and 4.32 µM against Acetylcholinesterase [12].

Turning to `O=c1c2ccccc2[se]n1-c1ccc(CN2CCCCC2)cc1`, the half-inhibitory concentration (IC50) was 10.8 µM against Acetylcholinesterase [3], 5.56 µM against Cholinesterase and 2.36 µM at Acetylcholinesterase [12].

With `O=c1c2ccccc2[se]n1-c1ccc(OCCN2CCCCC2)cc1`, the half-maximal inhibitory concentration (IC50) was found to be 10.9 µM on Acetylcholinesterase [3], 1.97 µM on Cholinesterase and 5.66 µM against Acetylcholinesterase [12].

Take `O=c1c2ccccc2[se]n1-c1ccccc1` [EBSELEN]: the Activity is 92.43 µM/min in [1]; 88.35 µM/min in data set [2]; 2.85 mM⁻¹ min⁻¹ in data set [4]; 107.82 µM/min in [5]; 130.27 µM/min in [6]; 152.18 µM/min in [7]. The Activity was determined as 183.19 µM/min in [8]; 119.01 µM/min in [9]; 166.44 µM/min in data set [10]; 125.93 µM/min in data set [11]; 105.89 µM/min in [13]; 1.64 mM⁻¹ min⁻¹ in data set [17]. For the same molecule, the half-maximal inhibitory concentration (IC50) against Acetylcholinesterase [3] was over 15 µM; against Cholinesterase, 10.6 µM; against Acetylcholinesterase [12] it was over 15 µM. Further, the Kcat was found to be 0.0642 s⁻¹ in [14] and 0.0393 s⁻¹ in data set [16]. Moreover, the values for the maximal velocity (Vmax) in data set [14] and in data set [16] were 307.69 µM/min and 188.68 µM/min, respectively. Moreover, the outcome in [15] was Active.
